Experiments:
[1] = biological target: T1, recombinant human tissue transglutaminase 2 (TG2) (Homo sapiens, UniProt P21980); assay: TG2 deamidation assay (GDH-coupled fluorescent NADH assay, Z-Gln-Gly substrate); assay type: biochemical; conditions: fluorescent NADH-based deamidation assay; from log(concentration)-response relationships; read-out: IC50 for inhibition of TG2
T1 construct: 6xHis; made in house; host or cells: E. coli BL21
T1 sequence (P21980 1-687): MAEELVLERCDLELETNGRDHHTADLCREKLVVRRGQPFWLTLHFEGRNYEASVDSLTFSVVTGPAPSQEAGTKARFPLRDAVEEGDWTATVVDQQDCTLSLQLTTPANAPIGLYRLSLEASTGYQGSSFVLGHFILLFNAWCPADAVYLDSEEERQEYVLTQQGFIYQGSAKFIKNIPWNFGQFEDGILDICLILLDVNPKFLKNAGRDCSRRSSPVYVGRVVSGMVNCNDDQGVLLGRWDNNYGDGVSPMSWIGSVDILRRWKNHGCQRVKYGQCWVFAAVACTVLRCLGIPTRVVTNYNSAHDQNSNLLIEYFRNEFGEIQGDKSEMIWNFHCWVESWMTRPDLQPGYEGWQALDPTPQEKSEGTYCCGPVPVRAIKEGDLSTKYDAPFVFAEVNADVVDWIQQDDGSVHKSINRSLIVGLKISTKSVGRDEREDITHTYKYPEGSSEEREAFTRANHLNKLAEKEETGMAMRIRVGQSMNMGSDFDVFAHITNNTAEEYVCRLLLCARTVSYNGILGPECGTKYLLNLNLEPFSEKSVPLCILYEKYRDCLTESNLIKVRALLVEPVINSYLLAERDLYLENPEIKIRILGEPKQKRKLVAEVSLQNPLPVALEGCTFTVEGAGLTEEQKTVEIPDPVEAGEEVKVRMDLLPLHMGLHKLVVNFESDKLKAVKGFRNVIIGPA
Method: The illustrative compounds of the invention described above were tested in a TG2 assay with recombinant human tissue transglutaminase, as described in the Examples. […] It should be noted that, although […] inhibition is observed upon addition of these compounds, this observation may result from the ability of some inhibitors to bind to the GTP binding site of TG2. […] Thus, it follows that pharmacologically useful inhibitors of TG2 could be identified based on their ability to bind to either the enzyme active site or the GTP binding site. Purification of recombinant human TG2. […] The enzyme was isolated from cell lysates using nickel affinity chromatography. Following a buffer exchange, TG2 was purified further by ion-exchange (HiTrap-Q) chromatography using an Akta-FPLC system (Amersham Biosciences). […] Assays of tissue transglutaminase activity. The transamidation activity of TG2 was measured as described by Slaughter, et al. Anal Biochem, 1992. 205(1): p. 166-71. Briefly, 96-well Maxisorp plates (Nunc, Inc.) were coated with […] N′—N′-dimethylated casein overnight at 4° C. […] The deamidation activity of TG2 was measured essentially as described previously (Piper, et al. Biochemistry, 2002. 41(1): p. 386-93). […] TG2-catalyzed production of ammonium ions was monitored through the coupled oxidation of NADH by GDH. NADH levels were monitored by fluorescence (excitation: 341 nm; emission 451 nm) and were standardized with known amounts of NADH. During enzymatic reactions, NADH levels were monitored kinetically using a Fluoroskan II (Labsystems, Inc.) 96-well plate reader and a lag time of four minutes. These values were determined through analysis of the log(concentration)-response relationships.

[2] = biological target: T1, recombinant human tissue transglutaminase 2 (TG2); assay: TG2 transamidation assay (5-(biotinamido)pentylamine incorporation into dimethylated casein); assay type: biochemical
Description: Purification of recombinant human TG2. TG2 was purified from eight 1 L cultures of the BL21 strain of E. coli expressing a plasmid encoding recombinant, 6×-His tagged human tissue transglutaminase 2 (TG2). The enzyme was isolated from cell lysates using nickel affinity chromatography. Following a buffer exchange, TG2 was purified further by ion-exchange (HiTrap-Q) chromatography using an Akta-FPLC system (Amersham Biosciences). Fractions containing purified TG2 were pooled, exchanged into low salt buffer (20 mM Tris-Cl, 1 mM EDTA, 1 mM DTT, pH 7.2), supplemented with 10% glycerol, flash frozen in 100 μL aliquots and stored at −80° C.
Assays of tissue transglutaminase activity. The transamidation activity of TG2 was measured as described by Slaughter, et al. Anal Biochem, 1992. […] 5-BP incorporated by TG2 was visualized by binding of a streptavidin-alkaline phosphatase conjugate (Sigma) and kinetic measurement of the dephosphorylation of pNPP was monitored at 410 nm using a ThermoMax microplate reader (Molecular Devices). The deamidation activity of TG2 was measured essentially as described previously (Piper, et al. Biochemistry, 2002. 41(1): p. 386-93). […] TG2-catalyzed production of ammonium ions was monitored through the coupled oxidation of NADH by GDH. NADH levels were monitored by fluorescence (excitation: 341 nm; emission 451 nm) and were standardized with known amounts of NADH. […]

neurologic cancer = conditions: at concentrations of 12.5-50 mg/kg; cited from earlier work

Row | SMILES | IC50 [1] [µM] | further results
1 | Cc1ccc2c(c1)C(=O)C(=O)N2CC(=O)Nc1ccc(S(=O)(=O)NCC2CCCO2)cc1 (stereo not shown) [CSRF-8] | 150 | –
2 | O=C1Nc2ccc(Cc3ccc4c(c3)C(=O)C(=O)N4)cc2C1=O [CSRF-14, 1,1-di-(1H-indole-2,3-dione-5-yl)-methane] | 16 | –
3 | CCN1C(=O)c2cccc3c(NC(=O)CSc4ccc5ccccc5n4)ccc1c23 [CSRF-17] | 200 | –
4 | O=C(CSc1nnc2c(n1)[nH]c1ccc(F)cc12)OC1CCCCC1 [CSRF-2, (6-fluoro-9H-1,3,4,9-tetraaza-fluoren-2-ylsulfanyl)-acetic acid cyclohexyl ester] | 36 | –
5 | O=C1Nc2ccc(Oc3ccc4c(c3)C(=O)C(=O)N4)cc2C1=O [CSRF-18, di-(1H-indole-2,3-dione-5-yl)-ether] | 23 | –
6 | O=C(CN1C(=O)C(=O)c2ccccc21)Nc1ccc(N2CCN(C(=O)c3cccs3)CC2)cc1 [CSRF-6, 2-(2,3-dioxo-2,3-dihydro-indol-1-yl)-N-{4-[4-(thiophene-2-carbonyl)-piperazin-1-yl]-phenyl}-acetamide] | 17 | –
7 | O=C(CN1C(=O)C(=O)c2cc(Br)ccc21)NCC1CC1 [CSRF-7, 2-(5-bromo-2,3-dioxo-2,3-dihydro-indol-1-yl)-N-cyclopropylmethyl-acetamide] | 30 | –
8 | O=C1NC(=O)N(c2cccc(Cl)c2)C(=O)/C1=N/c1ccc(Cl)c(CN2C(=O)c3ccccc3C2=O)c1 [CSRF-21, 5-[4-Chloro-3-(1,3-dioxo-1,3-dihydro-isoindol-2-ylmethyl)-phenylimino]-1-(3-chloro-phenyl)-pyrimidine-2,4,6-trione] | – | IC50 [2]: 10 µM
9 | O=C1C(=O)N(C(=O)NC2CCCCC2)c2ccc(Br)cc21 [CSRF-20, 5-bromo-2,3-dioxo-2,3-dihydro-indole-1-carboxylic acid cyclohexylamide] | 110 | –
10 | O=C(N[C@@H](Cc1ccc(O)cc1)C(=O)NCC1CC(Br)=NO1)OCc1ccccc1 (stereo partly shown) [KCC009] | – | activity in a mouse model for neurologic cancer (neurologic cancer): active
11 | Cc1cccc(NC(=S)N(Cc2cc3ccc(C)c(C)c3[nH]c2=O)CC2CCCO2)c1 (stereo not shown) [CSRF-3, 1-(7,8-dimethyl-2-oxo-1,2-dihydro-quinolin-3-ylmethyl)-1-(tetrahydrofuran-2-ylmethyl)-3-m-tolyl-thiourea] | 30 | –
12 | CC1=CC(C)(C)N2C(=O)C(=O)c3cc(OC(=O)C4CCCO4)cc1c32 (stereo not shown) [CSRF-24, tetrahydrofuran-2-carboxylic acid 4,4,6-trimethyl-1,2-dioxo-1,2-dihydro-4H-pyrrolo[3,2,1-ij]quinolin-8-yl ester] | 450 | –
13 | O=C(NNC(=O)C1=NOC(CNc2ncc(C(F)(F)F)cc2Cl)C1)Nc1ccc(Cl)cc1 (stereo not shown) [CSRF-13, 1-(4-chloro-phenyl)-3-(2-{5-[3-chloro-5-trifluoromethyl-pyridin-2-ylamino)-methyl]-4,5-dihydro-isoxazol-3-yl}-carboxamido-N-urea] | 250 | –

From patent publication US20090220554A1, “Transglutaminase Inhibitors and Methods of Use Thereof” (priority 2005, published 2009)
